Experimental data reported in patent publication US10618930B2, “Compounds for the treatment of cancer” (Eisai R&D Management Co., Ltd., priority 2017, dated 2020).
Read-outs that look alike come from different tables or passages of the source.

Columns and labels:
Human STING = Human STING (Homo sapiens, UniProt Q86WV6); assay: Human STING reporter assay, Tables 6-8 (variant named only in a drawing); conditions: read-out: Human STING EC50 (μM)
REF Human STING = REF Human STING (Homo sapiens, UniProt Q86WV6); assay: STING variant specific reporter assay, REF-STING (THP1-Dual KO-STING cells); conditions: read-out: Human STING EC50 (μM) REF; Table 5; ammonium salt form of each compound
[1] = tested on: hepatocytes of CD-1 mouse; assay: Hepatocyte incubation, metabolite identification (mouse); format: in vitro ADME; conditions: 10 μmol/L
Method: (§1) Prior to incubations, the cryopreserved hepatocytes were thawed in a water bath at 37° C. One tube of cryopreserved hepatocytes was added to each 50-mL conical tube of cryopreserved hepatocyte recovery medium (UCRM) obtained from In Vitro ADMET Laboratories (Columbia, Md.). The cells were spun in a Beckman centrifuge (Brea, Calif.) with a GH 3.8 rotor at 740 rpm for 10 minutes at […]. The supernatant was removed and the cells were re-suspended in plating media for counting. After the cells were re-suspended in plating media, 20 μL of the re-suspension was transferred and mixed with 20 μL of AOPI staining solution. The solution was gently mixed and cells were counted using a Cellometer (Nexcelom, Lawrence, Mass.). After counting, the cells were then re-suspended at 1 or 2 million viable cells/mL in Williams' E media containing 2 mmol/L L-glutamine (pH 7.4).
(§2) The hepatocyte suspension (50 μL/well) was added into a 48-well plate. […]
(§3) The LC-MS/MS system was composed of a Shimadzu HPLC and an AB-SCIEX TripleTOF 5600 hybrid quadrupole and TOF mass spectrometer (Framingham, Mass.). […] The samples obtained from incubations with hepatocytes were analyzed under both negative and positive scan modes. […]

[2] = tested on: hepatocytes of Beagle dog; assay: Hepatocyte incubation, metabolite identification (dog); format: in vitro ADME; conditions: 10 μmol/L
Method: as §1, §2, §3

[3] = tested on: hepatocytes of Sprague Dawley rat; assay: Hepatocyte incubation, metabolite identification (rat); format: in vitro ADME; conditions: 10 μmol/L
Method: as §1, §2, §3

[4] = tested on: primary human PBMC IFNβ protein production; assay: Ex vivo human PBMC stimulation assay, IFNβ protein; format: cell-based; conditions: average of five donors
Method: After 24 hours of incubation the tubes were centrifuged at 1400 rpm for 5 minutes and supernatants were harvested. Supernatant were stored in −80° C. for subsequent IFNβ measurement. IFNβ measurement was done using Human IFN-β Base Kit (Meso Scale Diagnostics cat # K151ADA) and protocol provided by manufacturer was used. IFN-beta estimation was done by reading assay plate at MESO SECTOR Imager 2400 and using MSD Discovery Workbench 4.0 program. After 24 hours IFNβ protein was analyzed.
Results shown in Table 10 reflect an average of measurements conducted using five different donors.

CT26 tumors = assay: CT26 dual tumor model (mouse colon cancer model)
[5] = tested on: hepatocytes of Cynomolgus monkey; assay: Hepatocyte incubation, metabolite identification (monkey); format: in vitro ADME; conditions: 10 μmol/L
Method: as §1, §2, §3

hepatocytes of human = assay: Hepatocyte incubation, metabolite identification (human); format: in vitro ADME; conditions: 10 μmol/L
Method: as §1, §2, §3

[6] = Table 6, head only in drawing 188, ammonium salt form except Compounds 26, 33, 34 (bis-TEA salts)

Chain of Human STING (Q86WV6 whole entry): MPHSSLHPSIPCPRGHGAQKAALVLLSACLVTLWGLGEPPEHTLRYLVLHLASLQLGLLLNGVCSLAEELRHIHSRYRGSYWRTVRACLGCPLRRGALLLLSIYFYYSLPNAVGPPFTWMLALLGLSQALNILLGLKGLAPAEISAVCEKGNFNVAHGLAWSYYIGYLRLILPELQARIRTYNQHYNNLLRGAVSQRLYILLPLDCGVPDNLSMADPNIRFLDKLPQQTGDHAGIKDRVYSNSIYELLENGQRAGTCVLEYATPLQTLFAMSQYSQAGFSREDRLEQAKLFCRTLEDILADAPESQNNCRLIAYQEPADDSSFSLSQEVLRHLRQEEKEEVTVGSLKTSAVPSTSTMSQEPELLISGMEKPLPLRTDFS
Chain of REF Human STING (Q86WV6 whole entry): as above

`C=CCN(C(=O)c1ccccc1)c1ncnc2c1ncn2[C@@H]1O[C@@H]2COP(=S)(OCCC#N)O[C@H]3[C@@H](F)[C@H](n4cnc5c(N(CC=C)C(=O)c6ccccc6)ncnc54)O[C@@H]3COP(=O)(S)O[C@H]2[C@H]1F` (stereo partly drawn) gave a ring closure, yield of all isomers (from C=CCN(C(=O)c1ccccc1)c1ncnc2c1ncn2[C@@H]1O[C@H](COP(=S)(OCCC#N)O[C@H]2[C@@H](F)[C@H](n3cnc4c(N(CC=C)C(=O)c5ccccc5)ncnc43)O[C@@H]2CO)[C@@H](O[PH](=O)O)[C@H]1F, other bond, 2 steps) of 100%.

Compound `CC(C)(C)[Si](C)(C)O[C@@H]1[C@@H]2N[P@@](=S)(OCCC#N)OC[C@H]3O[C@@H]4[C@H](O[Si](C)(C)C(C)(C)C)[C@@H]3N[P@](=S)(OCCC#N)OC[C@H]2O[C@H]1n1cnc2c(ncnc21)N(C(=O)c1ccccc1)CC=CCN(C(=O)c1ccccc1)c1ncnc2c1ncn24` has a ring closure, yield of all isomers (from C=CCN(C(=O)c1ccccc1)c1ncnc2c1ncn2[C@@H]1O[C@@H]2CO[P@@](=S)(OCCC#N)N[C@H]3[C@@H](O[Si](C)(C)C(C)(C)C)[C@H](n4cnc5c(N(CC=C)C(=O)c6ccccc6)ncnc54)O[C@@H]3CO[P@](=S)(OCCC#N)N[C@H]2[C@H]1O[Si](C)(C)C(C)(C)C, rcm bond) of 24.5%.

`CC(C)(C)[Si](C)(C)O[C@H]1[C@H]2O[P@@](=O)(SCc3ccccc3[N+](=O)[O-])OC[C@H]3O[C@@H]4[C@H](F)[C@@H]3O[P@](=O)(SCc3ccccc3[N+](=O)[O-])OC[C@H]1O[C@H]2n1cnc2c(ncnc21)N(C(=O)c1ccccc1)CC=CCN(C(=O)c1ccccc1)c1ncnc2c1ncn24` gave a ring closure, yield of all isomers (from C=CCN(C(=O)c1ccccc1)c1ncnc2c1ncn2[C@@H]1O[C@@H]2CO[P@](=O)(SCc3ccccc3[N+](=O)[O-])O[C@@H]3[C@H](O[Si](C)(C)C(C)(C)C)[C@@H](CO[P@@](=O)(SCc4ccccc4[N+](=O)[O-])O[C@H]2[C@H]1F)O[C@H]3n1cnc2c(N(CC=C)C(=O)c3ccccc3)ncnc21, rcm bond) of 6.1%.

`O=C(c1ccccc1)N1CC=CCN(C(=O)c2ccccc2)c2ncnc3c2ncn3[C@@H]2O[C@@H]3CO[P@](=O)(SCc4ccccc4[N+](=O)[O-])O[C@H]4[C@@H](F)[C@@H](O[C@@H]4CO[P@@](=O)(SCc4ccccc4[N+](=O)[O-])O[C@H]3[C@H]2F)n2cnc3c1ncnc32` gave a ring closure, yield of all isomers (from C=CCN(C(=O)c1ccccc1)c1ncnc2c1ncn2[C@@H]1O[C@@H]2CO[P@@](=O)(SCc3ccccc3[N+](=O)[O-])O[C@H]3[C@@H](F)[C@H](n4cnc5c(N(CC=C)C(=O)c6ccccc6)ncnc54)O[C@@H]3CO[P@](=O)(SCc3ccccc3[N+](=O)[O-])O[C@H]2[C@H]1F, rcm bond) of 39%.

Work on `O=C(c1ccccc1)N1CC=CCOc2ncnc3c2ncn3[C@@H]2O[C@@H]3COP(=O)(SCc4ccccc4[N+](=O)[O-])O[C@H]4[C@@H](F)[C@@H](O[C@@H]4COP(=O)(SCc4ccccc4[N+](=O)[O-])O[C@H]3[C@H]2F)n2cnc3c1ncnc32` (stereo partly drawn) yielded a ring closure, yield of all isomers (from C=CCOc1ncnc2c1ncn2[C@@H]1O[C@@H]2COP(=O)(SCc3ccccc3[N+](=O)[O-])O[C@H]3[C@@H](F)[C@H](n4cnc5c(N(CC=C)C(=O)c6ccccc6)ncnc54)O[C@@H]3COP(=O)(SCc3ccccc3[N+](=O)[O-])O[C@H]2[C@H]1F, rcm bond) of 25.6%.

In the case of `O=[N+]([O-])c1ccccc1CSP1(=O)OC[C@H]2O[C@H]([C@H](F)[C@@H]2O)n2cnc3c(ncnc32)CCC=CCCc2ncnc3c2ncn3[C@@H]2O[C@H](CO)[C@@H](O1)[C@H]2F` (stereo partly drawn), the ring closure, yield of all isomers (from C=CCCc1ncnc2c1ncn2[C@@H]1O[C@H](COP(=O)(O[C@H]2[C@@H](F)[C@H](n3cnc4c(CCC=C)ncnc43)O[C@@H]2COC(c2ccccc2)(c2ccc(OC)cc2)c2ccc(OC)cc2)SCc2ccccc2[N+](=O)[O-])[C@@H](O)[C@H]1F, rcm bond, 2 steps) is reported as 26.2%.

For `O=[N+]([O-])c1ccccc1CS[P@]1(=O)OC[C@H]2O[C@@H]3[C@H](F)[C@@H]2O[P@](=O)(SCc2ccccc2[N+](=O)[O-])OC[C@H]2O[C@H]([C@H](F)[C@@H]2O1)n1cnc2c(ncnc21)OCC=CCOc1ncnc2c1ncn23`, the ring closure, yield of all isomers (from C=CCOc1ncnc2c1ncn2[C@@H]1O[C@@H]2CO[P@@](=O)(SCc3ccccc3[N+](=O)[O-])O[C@H]3[C@@H](F)[C@H](n4cnc5c(OCC=C)ncnc54)O[C@@H]3CO[P@@](=O)(SCc3ccccc3[N+](=O)[O-])O[C@H]2[C@H]1F, rcm bond) was 3.6%.

Compound `O=[P@]1(S)OC[C@H]2OC3[C@H](F)[C@@H]2O[P@](=O)(S)OC[C@H]2O[C@H]([C@H](F)[C@@H]2O1)n1cnc2c(ncnc21)NCC1NC1CNc1ncnc2c1ncn23` (single isomer, unassigned) [Compound 35] has an EC50 (Human STING; [6]) of 67.2 µM.

`O=[P@]1(S)OC[C@H]2OC3[C@H](F)[C@@H]2O[P@](=O)(S)OC[C@H]2O[C@H]([C@H](F)[C@@H]2O1)n1cnc2c(ncnc21)NCC1NC1CNc1ncnc2c1ncn23` (single isomer, unassigned) [Compound 36] gave an EC50 (Human STING; [6]) of 94.1 µM.

For `O=P1(S)OC[C@H]2O[C@@H]3[C@H](F)[C@@H]2OP(=O)(S)OC[C@H]2OC([C@H](F)[C@@H]2O1)n1cnc2c(ncnc21)NCC/C=C/CNc1ncnc2c1ncn23` (single isomer, unassigned) [Compound 37], the EC50 (REF Human STING) was > 100 µM.

With `O=[P@]1(S)OC[C@H]2O[C@@H]3[C@H](F)[C@@H]2O[P@](=O)(S)OC[C@H]2O[C@H]([C@H](F)[C@@H]2O1)n1cnc2c(ncnc21)NC/C=C/CNc1ncnc2c1ncn23` [Compound 1a] the “metabolites identified (LC-MS/MS)” value ([1]; mouse hepatocytes) was “No apparent metabolite”, the “stability in incubations with hepatocytes” value (from here on “stability in incubations”) ([1]; mouse, up to 240 minutes) was “stable” and the “metabolites identified (LC-MS/MS)” value ([2]; dog hepatocytes) was “No apparent metabolite”. For the same compound, the “stability in incubations” value ([2]; dog, up to 240 minutes) was “stable”, the “metabolites identified (LC-MS/MS)” value ([3]; rat hepatocytes) was “No apparent metabolite” and the “stability in incubations” value ([3]; rat, up to 240 minutes) was “stable”. The “IFNβ” value ([4]; 0.1 μM, 24 hours) was 21.3 ± 17.8 pg/mL, the “IFNβ” value ([4]; 10 μM, 24 hours) was 540.2 ± 215.0 pg/mL and the “IFNβ” value [4] was 227.5 ± 62.4 pg/mL. The “cure rate, treated tumors” value (CT26 tumors; 0.6 mg/kg, intratumoral single dose (study B)) was 20%, the “animals cured of treated tumor at the end of study” value (CT26 tumors; 10 mg/kg, intratumoral single dose (study B)) was 100% and the “curative effects, untreated tumors” value (CT26 tumors; 10 mg/kg, intratumoral single dose into the other tumor) was 80%. The “metabolites identified (LC-MS/MS)” value ([5]; monkey hepatocytes) was “No apparent metabolite”, the “stability in incubations” value ([5]; monkey, up to 240 minutes) was “stable” and the “metabolites identified (LC-MS/MS)” value (hepatocytes of human; human hepatocytes) was “No apparent metabolite”. The “stability in incubations” value (hepatocytes of human; human, up to 240 minutes) was “stable”.

For `O=[P@@]1(S)OC[C@H]2O[C@@H]3[C@H](F)[C@@H]2O[P@](=O)(S)OC[C@H]2OC([C@H](F)[C@@H]2O1)n1cnc2c(ncnc21)OC/C=C/COc1ncnc2c1ncn23` [Compound 26], the EC50 (Human STING; [6]) was 7.4 µM.

`O=P1(O)OC[C@H]2OC3[C@H](F)[C@@H]2O[P@@](O)(=S)OC[C@H]2O[C@H]([C@H](F)[C@@H]2O1)n1cnc2c(ncnc21)NC/C=C/CNc1ncnc2c1ncn23` [Compound 27] gave an EC50 (Human STING) of 27.6 µM.

Compound `O=P1(O)OC[C@H]2OC3[C@H](F)[C@@H]2O[P@](O)(=S)OC[C@H]2O[C@H]([C@H](F)[C@@H]2O1)n1cnc2c(ncnc21)NC/C=C/CNc1ncnc2c1ncn23` [Compound 28] has an EC50 (Human STING) of 18.4 µM.

Compound `O=[P@]1(S)OC[C@H]2OC3[C@H](F)[C@@H]2O[P@](=O)(S)OC[C@H]2O[C@H]([C@H](F)[C@@H]2O1)n1cnc2c(ncnc21)NCC#CCNc1ncnc2c1ncn23` [Compound 29] has an EC50 (Human STING; [6]) of 8.4 µM.
